Data published in patent US8802704B2, “Oxadiazole derivatives” (Merck Serono SA, priority 2009, dated 2014).
Structures can show the parent of a compound that is named as a salt. Where two headings read alike, the source gives them in different places.

Columns and labels:
S1P1 [1] = molecular target: T1, S1P1 (Homo sapiens, UniProt P21453); assay: 35S-GTPγS binding on membranes from CHO cells expressing S1P1; format: biochemical; details: read-out: S1P1/GTPG EC50
Experimental: (§1) Membranes were prepared from CHO cells expressing S1P1 or S1P3 for use in ligand and […] binding studies. Cells were suspended in 50 mM TRIS, pH 7.4, 2 mM EDTA, 250 mM Sucrose (buffer A) and 1× Complete protease inhibitor cocktail (Roche), and disrupted at 4° C. by N2 decompression using a cell disruption bomb (Parr Instrument). Following centrifugation at 1000 RPM for 10 min at 4° C., the supernatant was diluted (2×) in buffer A and centrifuged again at 19000 RPM for 75 min at 4° C. The pellet was then suspended in 10 mM HEPES, pH 7.4, 1 mM EDTA, 250 mM Sucrose (Buffer B), and 1× Complete EDTA-free protease inhibitor cocktail and homogenized using a potter. Membranes were flash frozen in liquid N2 and stored at −80° C.
Membranes (1 to 10 μg protein) prepared as described above, were incubated in 96-well Scintiplates (PerkinElmer) with test compounds diluted in DMSO, in 140 μl of 20 mM HEPES, pH 7.4, 10 mM MgCl2, 2 μg/well Saponin, 0.2% fatty acid free BSA (Assay buffer), 125 mM NaCl and 1.5 μM GDP. […] Supernatant was discarded and membrane bound radioactivity was measured on a PerkinElmer 1450 MicroBeta counter. Triplicate samples were averaged and expressed as % response relative to S1P activation in absence of compound (n=2).
The “potency” or the “activity” of the compounds is determined by the EC50 values as evaluated in the above described 35S-GTPγS binding assay.
Target sequence in this assay (P21453 whole entry, species assumed): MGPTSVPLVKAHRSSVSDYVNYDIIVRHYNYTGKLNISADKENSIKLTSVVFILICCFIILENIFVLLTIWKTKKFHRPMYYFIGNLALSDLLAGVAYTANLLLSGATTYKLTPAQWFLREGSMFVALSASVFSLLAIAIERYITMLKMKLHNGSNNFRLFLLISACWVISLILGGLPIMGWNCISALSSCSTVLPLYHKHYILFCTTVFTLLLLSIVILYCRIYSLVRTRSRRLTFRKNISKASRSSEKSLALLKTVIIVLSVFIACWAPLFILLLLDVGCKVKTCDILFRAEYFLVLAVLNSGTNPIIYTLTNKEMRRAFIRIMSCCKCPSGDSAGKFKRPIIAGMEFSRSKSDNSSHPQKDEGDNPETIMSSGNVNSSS

S1P1 [2] = molecular target: T1, S1P1; assay: S1P1 internalization assay in S1P1-U2OS cells (cell imaging); format: cell-based; details: U2OS cells expressing S1P1-EGFP, 1 hour
Experimental: Cellular functional assays: Internalization of Sphingosine-1-phosphate receptor 1 (S1P1) in a human Cell line (U2OS) in a 384-well format using a Cell Imaging analysis.
The S1P1 internalization assay was performed in 384 well plates (Corning® 384 black with clear bottom 3712) using S1P1-U2OS cells from Biolmage (C039A), a human epithelial cell line (Human Bone Osteosarcoma Epithelial Cells). These cells expressed the human S1P1 Receptor fused to the green fluorescent protein (EGFP). A standard CMV promoter (cytomegalovirus promoter) controls the expression of S1P1-EGFP and continuous expression was maintained by addition of geneticin to the culture medium.
S1P1Receptor desensitization induced the internalization of the membrane-localized S1P1-EGFP fusion protein to endosomes, which can be monitored by cell imaging analysis. The cells are plated in low serum medium (Dulbecco's Modified Eagle Medium (DMEM) with Glutamax-1 and high glucose, 1% Penicillin/Streptomycin, 1% Fetal Calf Serum (FCS), 0.5 mg/ml Geneticin) overnight.
The next day, S1P1-U2OS cells are incubated in 20 μl serum free medium (DMEM with Glutamax-1 and high glucose, 0.1% of fatty-acid free Bovin Serum Albumin (BSA), 10 mM, N′-2-Hydroxyethylpiperazine-N′-2 ethanesulphonic acid (HEPES) 1M) for 2 hours at 37° C./5% CO2. The cells are then treated with 4 μl compounds/agonists (6×/3% DMSO) for a total volume of 24 μl, and plates are incubated for 1 hour at 37° C./5% CO2.
S1P1-U2OS cells are fixed with 25 μl Paraformaldehyde 8% and stained with Hoechst 33345 dye (1:1000) for 20 minutes.
They were then washed 3 times with Phosphate Buffered Saline (PBS) and plates are sealed. The internalization of the receptor S1P1-EGFP is measured on Cellomics by calculating the “spot count per object” (“object” corresponds to nuclear and “spot” corresponds to S1P1-EGFP receptor). Internalization data were observed thanks to vHCS View and analyzed using Genedata® software.
Target sequence in this assay (P21453 whole entry): as the sequence (P21453 whole entry, species assumed) above

S1P1 [3] = molecular target: T1, S1P1; assay: Receptor binding assay, [33P]sphingosine 1-phosphate competition (SPA), S1P1
Experimental: Cells were suspended in 50 mM TRIS, pH 7.4, 2 mM EDTA, 250 mM Sucrose (buffer A) and 1× Complete protease inhibitor cocktail (Roche), and disrupted at 4° C. by N2 decompression using a cell disruption bomb (Parr Instrument). […] The pellet was then suspended in 10 mM HEPES, pH 7.4, 1 mM EDTA, 250 mM Sucrose (Buffer B), and 1× Complete EDTA-free protease inhibitor cocktail and homogenized using a potter. Membranes were flash frozen in liquid N2 and stored at −80° C.
[33P]sphingosine 1-phosphate (3000 Ci/mmol; American Radiolabeled Chemicals, Inc.) was added to test compounds in 20% DMSO by competition. […] Triplicate samples were averaged and normalized as percentage of inhibition relative to total binding (only DMSO in well) and non-specific binding (1000-fold excess of unlabeled S1P). Binding data were analyzed using the GraphPad Prism program or Genedata software.
Target sequence in this assay (P21453 whole entry, species assumed): as above

S1P3 = S1P3 (Homo sapiens, UniProt Q99500); assay: Receptor binding assay, [33P]sphingosine 1-phosphate competition (SPA), S1P3
Sequence of S1P3 (Q99500 whole entry, species assumed): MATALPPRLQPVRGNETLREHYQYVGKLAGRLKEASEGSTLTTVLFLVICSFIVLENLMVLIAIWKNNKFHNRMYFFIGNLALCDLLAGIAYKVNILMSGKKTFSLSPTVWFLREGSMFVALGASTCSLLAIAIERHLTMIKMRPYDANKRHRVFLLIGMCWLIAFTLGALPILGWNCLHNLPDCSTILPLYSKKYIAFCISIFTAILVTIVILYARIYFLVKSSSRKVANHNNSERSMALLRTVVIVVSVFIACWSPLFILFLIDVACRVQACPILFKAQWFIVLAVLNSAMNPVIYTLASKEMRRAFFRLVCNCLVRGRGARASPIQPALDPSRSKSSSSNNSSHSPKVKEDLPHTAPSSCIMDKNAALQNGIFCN
Experimental: as §1
[33P]sphingosine 1-phosphate (3000 Ci/mmol; American Radiolabeled Chemicals, Inc.) was added to test compounds in 20% DMSO by competition. Membranes and WGA SPA beads (GE Healthcare) were added to give a final volume of 100 μl in 96-well plates or 50 μl in 384-well plates with assay concentrations of 30 pM or 15 pM [33P]sphingosine 1-phosphate (respectively for S1P1 or S1P3), 50 mM HEPES, pH 7.5, 5 mM MgCl2, 100 mM NaCl, 0.4% fatty acid-free BSA, 1-5 μg/well of proteins in 96-well plates vs 0.6-1 μg/well of proteins in 384-well plates and 100 μg/well of WGA SPA beads in 96-well plates vs 75 μg/well of WGA SPA beads in 384-well plates. Binding was performed for 60 min at RT on a shaker and bound radioactivity was measured on a PerkinElmer 1450 MicroBeta counter. Triplicate samples were averaged and normalized as percentage of inhibition relative to total binding (only DMSO in well) and non-specific binding (1000-fold excess of unlabeled S1P). Binding data were analyzed using the GraphPad Prism program or Genedata software.

lymphocytes = assay: Model of S1P agonists-induced lymphopenia in mice; format: in vivo; details: oral route
Experimental: (§2) Female C57BL/6 mice (Elevage Janvier) (8 week old) receive S1P agonists by oral route. Blood is sampled in heparinized (100 IU/kg, ip) mice by intracardiac or retroorbital puncture under isoflurane anesthesia 2 to 120 hrs after drug treatment. The white blood cells (lymphocytes and neutrophils) are counted using a Beckman/Coulter counter. The quality of blood sampling is assessed by counting erythocytes and platelets.

[4] = Pharmacokinetics (PK parameters from lymphopenia, mouse); format: in vivo; details: PK-PD (30 mpk)
Experimental: as §2
The pharmacoinetic properties of compound of example 70, N-(2-fluoro-4-{5-[2′-methyl-2-(trifluoromethyl)biphenyl-4-yl]-1,2,4-oxadiazol-3-yl}benzyl)-N-methylglycine, are the following: […]

[5] = 96 well-plate, read-out: S1P1 binding Ki (M) (96 well-plate)
[6] = 384 well-plate, read-out: S1P1 binding Ki (M) (384 well-plate)
[7] = 96 well-plate, read-out: S1P3 binding Ki (M) (96 well-plate)
[8] = 384 well-plate, read-out: S1P3 binding Ki (M) (384 well-plate)
[9] = female, C57BL/6, plasma, po, 30 mg/kg

COCc1cc(-c2nc(-c3cccc(CN(C)CC(=O)O)c3)no2)ccc1-c1ccccc1C(F)(F)F (as salt: hydrochloride) [Example 49, N-(3-{5-[2-(methoxymethyl)-2′-(trifluoromethyl)biphenyl-4-yl]-1,2,4-oxadiazol-3-yl}benzyl)-N-methylglycine]
melting point: 207 °C

Cc1ccccc1-c1ccc(-c2nc(-c3cccc(CN(C)CC(=O)O)c3)no2)cc1C(F)(F)F [Example 14, N-methyl-N-(3-{5-[2′-methyl-2-(trifluoromethyl)biphenyl-4-yl]-1,2,4-oxadiazol-3-yl}benzyl)glycine]
EC50 (S1P1 [1]): 1.24 nM
EC50 (S1P1 [2]): 8.75 nM
Ki (S1P1 [3]; [5]): 4.47e-10 M
Ki (S1P1 [3]; [6]): 1.93e-09 M
Ki (S1P3; [7]): 2.36e-07 M
Ki (S1P3; [8]): 1.68e-07 M

Cc1ccccc1-c1ccc(-c2nc(-c3ccc(CN(C)CC(=O)O)c(F)c3)no2)cc1C(F)(F)F [Example 70, N-(2-fluoro-4-{5-[2′-methyl-2-(trifluoromethyl)biphenyl-4-yl]-1,2,4-oxadiazol-3-yl}benzyl)-N-methylglycine]
% of lymphopenia in mouse at 48 h (lymphocytes): 72 +/− 8%
EC50 (S1P1 [2]): 13 nM
Ki (S1P1 [3]; [5]): 6.81e-10 M
Ki (S1P1 [3]; [6]): 2.19e-09 M
Lymphe node/plasma ratio: 24 h ([4]; 24 h): 4.4
Lymphe node/plasma ratio: 48 h ([4]; 48 h): 4.0
Kp ([4]; female, C57BL/6, brain, oral, 30 mg/kg, ratio of AUCZ, read-out: Brain/plasma ratio: AUCZ (h * ng/ml)): 2.4
AUC(0-inf) [4, 9]: 104 µg·h/mL
CL/F [4, 9]: 5 mL/min/kg
Cmax [4, 9]: 8780 ng/mL
Tmax [4, 9]: 2 h
half-life [4, 9]: 7.5 h
Ki (S1P3; [7]): 4.43e-07 M
Ki (S1P3; [8]): 4.11e-07 M

Cc1ccccc1-c1ccc(-c2nc(-c3ccc(CN(C)CC(=O)O)c(F)c3)no2)cc1C(F)(F)F (as salt: hydrochloride) [Example 70, N-(2-fluoro-4-{5-[2′-methyl-2-(trifluoromethyl)biphenyl-4-yl]-1,2,4-oxadiazol-3-yl}benzyl)-N-methylglycine]
melting point: 183 °C

CCOc1cc(-c2nc(-c3ccc(CN(C)CC(=O)O)cc3)no2)ccc1-c1ccccc1C(F)(F)F (as salt: hydrochloride) [Example 115, N-(4-{5-[2-ethoxy-2′-(trifluoromethyl)biphenyl-4-yl]-1,2,4-oxadiazol-3-yl}benzyl)-N-methylglycine]
melting point: 210 °C

Cc1cc(-c2nc(-c3cc(F)cc(CN(C)CC(=O)O)c3)no2)ccc1-c1ccccc1C(F)(F)F (as salt: hydrochloride) [Example 104, N-(3-fluoro-5-{5-[2-methyl-2′-(trifluoromethyl)biphenyl-4-yl]-1,2,4-oxadiazol-3-yl}benzyl)-N-methylglycine]
melting point: 207 °C

Cc1ccccc1-c1ccc(-c2nc(-c3cc(F)c(CN(C)CC(=O)O)c(F)c3)no2)cc1C(F)(F)F [Example 148, 2-((2,6-difluoro-4-(5-(2′-methyl-2-(trifluoromethyl)biphenyl-4-yl)-1,2,4-oxadiazol-3-yl)benzyl)(methyl)amino)acetic acid]
EC50 (S1P1 [2]): 24.7 nM
Ki (S1P1 [3]; [6]): 2.38e-09 M
Ki (S1P3; [8]): 8.34e-07 M

CN(CC(=O)O)Cc1cc(F)cc(-c2noc(-c3ccc(-c4ccccc4C(F)(F)F)c(Cl)c3)n2)c1 (as salt: hydrochloride) [Example 136, N-(3-{5-[2-chloro-2′-(trifluoromethyl)biphenyl-4-yl]-1,2,4-oxadiazol-3-yl}-5-fluorobenzyl)-N-methylglycine]
melting point: 212 °C

CCc1ccccc1-c1ccc(-c2nc(-c3ccc(CN(C)CC(=O)O)cc3)no2)cc1C(F)(F)F [Example 109, N-(4-{5-[2′-ethyl-2-(trifluoromethyl)biphenyl-4-yl]-1,2,4-oxadiazol-3-yl}benzyl)-N-methylglycine]
EC50 (S1P1 [2]): 11.9 nM
Ki (S1P1 [3]; [6]): 1.5e-09 M
Ki (S1P3; [8]): 2.93e-07 M
